# Data reported in ChEMBL document CHEMBL1133939, “Structure-activity relationship studies of a bisbenzimidazole-based, Zn(2+)-dependent inhibitor of HCV NS3 serine protease” (Bioorg Med Chem Lett, 2001).
# Molecular target: T1, NS3 (Hepatitis C virus, UniProt A3EZJ3)
# Assay: Inhibitory activity against hepatitis C virus (HCV) NS3 protease in the presence of Zn2+.
# Set-up: species or system Hepacivirus hominis
# T1 sequence (A3EZJ3 whole entry): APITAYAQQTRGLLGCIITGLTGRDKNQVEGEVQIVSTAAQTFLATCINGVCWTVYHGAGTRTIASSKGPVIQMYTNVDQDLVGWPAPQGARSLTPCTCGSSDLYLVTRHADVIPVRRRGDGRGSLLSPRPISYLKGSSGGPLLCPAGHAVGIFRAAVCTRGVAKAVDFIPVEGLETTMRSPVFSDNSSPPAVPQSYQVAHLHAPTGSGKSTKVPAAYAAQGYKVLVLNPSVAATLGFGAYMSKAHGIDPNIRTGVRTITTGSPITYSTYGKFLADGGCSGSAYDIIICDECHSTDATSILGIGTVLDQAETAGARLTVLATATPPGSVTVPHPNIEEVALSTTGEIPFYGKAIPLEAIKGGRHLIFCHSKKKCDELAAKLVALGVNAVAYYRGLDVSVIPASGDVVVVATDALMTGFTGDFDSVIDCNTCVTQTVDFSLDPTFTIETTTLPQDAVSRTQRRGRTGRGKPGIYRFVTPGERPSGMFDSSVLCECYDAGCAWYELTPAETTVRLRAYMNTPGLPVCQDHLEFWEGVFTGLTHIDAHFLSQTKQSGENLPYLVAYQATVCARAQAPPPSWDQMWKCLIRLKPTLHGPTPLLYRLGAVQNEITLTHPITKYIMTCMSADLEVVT
row,Structure (SMILES),IC50 [µM]
1,Cn1c(Cc2nc3ccc(C(N)=O)cc3[nH]2)nc2ccc(C(=O)NC(CCCCCP(=O)(O)O)C(=O)O)cc21 (configuration not stated),0.51
2,Cn1c(Cc2nc3cc(C(N)=O)ccc3[nH]2)nc2ccc(C(=O)NC(CCCP(=O)(O)O)C(=O)O)cc21 (configuration not stated),0.82
3,Cn1c(Cc2nc3ccc(C(N)=O)cc3[nH]2)nc2ccc(C(=O)NC(Cc3cc(OCC(=O)O)ccc3C(=O)O)C(=O)O)cc21 (configuration not stated),12
4,Cn1c(Cc2nc3ccc(C(N)=O)cc3[nH]2)nc2ccc(C(=O)Nc3ccc(C(=O)NC(CCC(=O)O)C(=O)O)cc3)cc21 (configuration not stated),17
5,Cn1c(Cc2nc3cc(C(N)=O)ccc3[nH]2)nc2ccc(C(=O)Nc3cc(C(=O)O)cc(C(=O)NC(CC(=O)O)C(=O)O)c3)cc21 (configuration not stated),1
6,COC(=O)c1ccccc1S(=O)(=O)NC(=O)CC(NC(=O)c1ccc2nc(Cc3nc4ccc(C(N)=O)cc4[nH]3)n(C)c2c1)C(=O)O (configuration not stated),8.1
7,Cn1c(Cc2nc3cc(C(N)=O)ccc3[nH]2)nc2ccc(C(=O)NC(CCP(=O)(O)O)C(=O)O)cc21 (configuration not stated),0.87
8,Cn1c(Cc2nc3ccccc3[nH]2)nc2ccc(C(=O)NC(CC(=O)NS(=O)(=O)c3ccccc3C(=O)O)C(=O)O)cc21 (configuration not stated),3.4
9,Cn1c(Cc2nc3cc(C(N)=O)ccc3[nH]2)nc2ccc(C(=O)NC(CP(=O)(O)O)C(=O)O)cc21 (configuration not stated),0.2
10,Cn1c(Cc2nc3cc(C(N)=O)ccc3[nH]2)nc2ccc(C(=O)NC(Cc3cccc(C(=O)O)c3)C(=O)O)cc21 (configuration not stated),25
11,Cn1c(Cc2nc3ccccc3[nH]2)nc2ccc(C(=O)NC(CCC(=O)N(CC(=O)O)CC(=O)O)C(=O)O)cc21 (configuration not stated),7.7
12,Cn1c(Cc2nc3cc(C(N)=O)ccc3[nH]2)nc2ccc(C(=O)NC(CC(=O)NS(=O)(=O)c3ccccc3C(=O)O)C(=O)O)cc21 (configuration not stated),1.6
13,COC(=O)c1ccccc1S(=O)(=O)NC(=O)C[C@H](NC(=O)c1ccc2nc(Cc3nc4ccc(C(N)=O)cc4[nH]3)n(C)c2c1)C(=O)OCc1ccccc1,37
14,Cn1c(Cc2nc3cc(C(N)=O)ccc3[nH]2)nc2ccc(C(=O)Nc3cc(C(=O)O)cc(C(=O)NC(CCC(=O)O)C(=O)O)c3)cc21 (configuration not stated),2
15,COC(=O)c1ccccc1S(=O)(=O)NC(=O)CC(NC(=O)c1ccc2nc(Cc3nc4ccccc4[nH]3)n(C)c2c1)C(=O)O (configuration not stated),11
16,Cn1c(Cc2nc3cc(C(N)=O)ccc3[nH]2)nc2ccc(C(=O)NCCc3ccc(OCC(=O)O)cc3)cc21,16
17,Cn1c(Cc2nc3ccc(C(N)=O)cc3[nH]2)nc2ccc(C(=O)NC(Cc3ccc(C(=O)O)c(OCC(=O)O)c3)C(=O)O)cc21 (configuration not stated),9
18,COC(=O)c1ccccc1S(=O)(=O)NC(=O)CC[C@H](NC(=O)c1ccc2nc(Cc3nc4cc(C(N)=O)ccc4[nH]3)n(C)c2c1)C(=O)OCc1ccccc1,29
19,Cn1c(Cc2nc3cc(C(N)=O)ccc3[nH]2)nc2ccc(C(=O)NC(CC(C(=O)O)C(=O)O)C(=O)O)cc21 (configuration not stated),2.6
20,Cn1c(Cc2nc3ccc(C(N)=O)cc3[nH]2)nc2ccc(C(=O)Nc3cccc(C(=O)NCCCC(=O)O)c3)cc21,43
21,Cn1c(Cc2nc3ccc(C(N)=O)cc3[nH]2)nc2ccc(C(=O)Nc3cccc(C(=O)NC(CCC(=O)O)C(=O)O)c3)cc21 (configuration not stated),6.4
22,Cn1c(Cc2nc3cc(C(N)=O)ccc3[nH]2)nc2ccc(C(=O)NC(Cc3ccc(OCC(=O)O)c(C(=O)O)c3)C(=O)O)cc21 (configuration not stated),4
23,Cn1c(Cc2nc3ccc(C(N)=O)cc3[nH]2)nc2ccc(C(=O)NC(Cc3ccc(OCC(=O)O)cc3)C(=O)O)cc21 (configuration not stated),1
24,Cn1c(Cc2nc3ccc(C(N)=O)cc3[nH]2)nc2ccc(C(=O)NC(CCC(=O)NS(=O)(=O)c3ccccc3C(=O)O)C(=O)O)cc21 (configuration not stated),2.6
25,Cn1c(Cc2nc3ccc(C(N)=O)cc3[nH]2)nc2ccc(C(=O)NC(Cc3ccc(O)c(C(=O)O)c3)C(=O)O)cc21 (configuration not stated),7
26,Cn1c(Cc2nc3ccccc3[nH]2)nc2ccc(C(=O)NCCc3ccc(OCC(=O)NS(=O)(=O)c4ccccc4)cc3)cc21,12

# Molecular target: T1, NS3
# Assay: Inhibitory activity against hepatitis C virus (HCV) NS3 protease in the absence of Zn2+
# Set-up: species or system Hepacivirus hominis
row,Structure (SMILES),IC50 [µM]
1,Cn1c(Cc2nc3cc(C(N)=O)ccc3[nH]2)nc2ccc(C(=O)NC(CP(=O)(O)O)C(=O)O)cc21 (configuration not stated),167
